Like-named read-outs stand apart in the source and are kept apart here.
How the values were obtained:
[1] = tested on: dogs with naturally occurring osteoarthritis; experiment: Dose ranging field study in osteoarthritic dogs, CBPI (Example 6); assay type: in vivo, dog; details: for median decrease from baseline PSS score: placebo 28; for median decrease from baseline PIS score: placebo 39.13; for Pain Interference Score (PIS), % change from Day 0 / Pain Severity Score (PSS), % change from Day 0: Formulation A34 tablets
Protocol: In a masked, multi-centered dose ranging field study, dogs with naturally occurring osteoarthritis were treated with grapiprant at 2 mg/kg once daily (SID), 5 mg/kg once daily, 4 mg/kg twice daily (BID), or placebo twice daily to assess the control of pain and inflammation. Dogs were randomly assigned to one of the four treatment groups and treated orally with Formulation A34 tablets of 20, 60, and 100 mg, or placebo tablets (matched to the 4 mg/kg group). (See above at Example 2, Table 4). The control of pain and inflammation was assessed by the owner using the validated Canine Brief Pain Inventory (CBPI) assessment tool, which consists of a pain severity score (PSS), a Pain Interference Score (PIS), and an Owner Impression of dog's quality of life. CBPI scoring, as well as a veterinarian assessment of osteoarthritis, were conducted at Study Day 0 (baseline) and Days 7, 14, 21, and 28.
In total 476 dogs were screened in the study with 108 screen failures, resulting in […] in the per protocol population.

[2] = tested on: cat serum proteins; experiment: Binding to cat serum proteins by equilibrium dialysis (Example 11); details: equilibrium dialysis (RED device)
Protocol: Grapiprant concentrations of 200 and 1000 ng/mL in cat serum were subjected to equilibrium dialysis using a Rapid Equilibrium Dialysis (RED) device.

[3] = tested on: onychectomy in cats; experiment: Onychectomy pain model in cats (Example 5); assay type: in vivo, cat; details: vs placebo
Description: The objective of this pilot study was to validate that this model/pain scoring system can differentiate positive from negative control animals in controlling the pain and inflammation of onychectomy and to test the effectiveness of a single dose of grapiprant in controlling the pain and inflammation associated with onychectomy in cats.
Following an acclimation period of 7, 8, or 9 days, a total of 30 adult cats were randomly divided between three treatment groups with ten animals assigned to each group. All animals were randomly assigned to a given surgery day such that within each day, an equal number of cats was from each treatment group. Within each day, the order of surgery was also randomized. […]
Surgical Procedure. […] During surgical procedures, each animal was monitored for at least heart rate and respiratory rate. […] Following surgery, each animal was periodically monitored until full recovery. […] Extubation time (time zero=T0) was recorded as the end of surgery.
All study animals were scored for sedation and analgesia the following schedule in Table 10. […]
Analgesia scores were given at specified time points during the study. […] Analgesia was scored by the same assessor during the first 8 hours of the study. […]
Results. The cat was evaluated as the experimental unit. Differences between treatment groups were evaluated at alpha of 0.05. […]

[4] = Pharmacokinetics in cats FPK-13-004 (Example 13); assay type: in vivo, cat; details: for AUC(0-t) / Cmax / Tmax / half-life / Cmax/Dose: cats
Protocol: This controlled, non-GLP, laboratory study used three treatment groups: Group 1 was dosed with grapiprant at 2.5 mg/animal; Group 2 was dosed with grapiprant at 5 mg/animal; and Group 3 was dosed with grapiprant at 10 mg/animal. Each dose was administered once on Day 0. Blood samples were collected and processed to serum for pharmacokinetic (PK) analysis. Four hours post-dose, all cats were offered food. Following PK sample collections on Day 1, all animals were released to an open feline colony.
Pharmacokinetic parameters were similar between males and females within each dose group, and therefore mean values were determined by combining data from all animals.

[5] = single dose 5 mg (1 mg/kg), mean of all animals
[6] = for a 4-fold increase in dose from 0.5 to 2 mg/kg

For `CCc1nc2c(C)nc(C)cc2n1-c1ccc(CCNC(=O)NS(=O)(=O)c2ccc(C)cc2)cc1` [grapiprant, N-{2-[4-(2-ethyl-4,6-dimethyl-1H-imidazo[4,5-c]pyridin-1-yl)phenyl]ethyl}-N′-[(4-methylphenyl)sulfonyl]urea], the “control of pain and inflammation of osteoarthritis (PSS and PIS of the CBPI)” value ([1]; 2 mg/kg SID and 5 mg/kg SID doses) was “equally effective in controlling the pain and inflammation of osteoarthritis in dogs”, the “median decrease from baseline PSS score” value ([1]; 2 mg/kg SID) was 48 and the “median decrease from baseline PIS score” value ([1]; 2 mg/kg SID) was 53.25. For the same compound, the “median decrease from baseline PSS score” value ([1]; 4 mg/kg BID) was 44.44, the “median decrease from baseline PIS score” value ([1]; 4 mg/kg BID) was 52.27 and the “median decrease from baseline PSS score” value ([1]; 5 mg/kg SID) was 48.53. The “median decrease from baseline PIS score” value ([1]; 5 mg/kg SID) was 55.27, the “Pain Interference Score (PIS), % change from Day 0” value ([1]; 2 mg/kg SID, Day 7, median) was −27.97% and the “Pain Severity Score (PSS), % change from Day 0” value ([1]; 2 mg/kg SID, Day 7, median) was −24.26%. The “Pain Interference Score (PIS), % change from Day 0” value ([1]; 2 mg/kg SID, Day 14, median) was −33.33%, the “Pain Severity Score (PSS), % change from Day 0” value ([1]; 2 mg/kg SID, Day 14, median) was −32.00% and the “Pain Interference Score (PIS), % change from Day 0” value ([1]; 2 mg/kg SID, Day 21, median) was −47.83%. For the same compound, the “Pain Severity Score (PSS), % change from Day 0” value ([1]; 2 mg/kg SID, Day 21, median) was −35.00%, the “Pain Interference Score (PIS), % change from Day 0” value ([1]; 2 mg/kg SID, Day 28, median) was −53.25% and the “Pain Severity Score (PSS), % change from Day 0” value ([1]; 2 mg/kg SID, Day 28, median) was −48.00%. The “Pain Interference Score (PIS), % change from Day 0” value ([1]; 4 mg/kg BID, Day 7, median) was −28.57%, the “Pain Severity Score (PSS), % change from Day 0” value ([1]; 4 mg/kg BID, Day 7, median) was −17.39% and the “Pain Interference Score (PIS), % change from Day 0” value ([1]; 4 mg/kg BID, Day 14, median) was −35.24%. The “Pain Severity Score (PSS), % change from Day 0” value ([1]; 4 mg/kg BID, Day 14, median) was −28.29%, the “Pain Interference Score (PIS), % change from Day 0” value ([1]; 4 mg/kg BID, Day 21, median) was −42.11% and the “Pain Severity Score (PSS), % change from Day 0” value ([1]; 4 mg/kg BID, Day 21, median) was −38.89%. For the same compound, the “Pain Interference Score (PIS), % change from Day 0” value ([1]; 4 mg/kg BID, Day 28, median) was −52.27%, the “Pain Severity Score (PSS), % change from Day 0” value ([1]; 4 mg/kg BID, Day 28, median) was −44.44% and the “Pain Interference Score (PIS), % change from Day 0” value ([1]; 5 mg/kg SID, Day 7, median) was −26.92%. The “Pain Severity Score (PSS), % change from Day 0” value ([1]; 5 mg/kg SID, Day 7, median) was −22.22%, the “Pain Interference Score (PIS), % change from Day 0” value ([1]; 5 mg/kg SID, Day 14, median) was −40.00% and the “Pain Severity Score (PSS), % change from Day 0” value ([1]; 5 mg/kg SID, Day 14, median) was −30.00%. The “Pain Interference Score (PIS), % change from Day 0” value ([1]; 5 mg/kg SID, Day 21, median) was −53.85%, the “Pain Severity Score (PSS), % change from Day 0” value ([1]; 5 mg/kg SID, Day 21, median) was −44.44% and the “Pain Interference Score (PIS), % change from Day 0” value ([1]; 5 mg/kg SID, Day 28, median) was −55.27%. For the same compound, the “Pain Severity Score (PSS), % change from Day 0” value ([1]; 5 mg/kg SID, Day 28, median) was −48.53%, the “preliminary estimated mean effective canine dose” value ([1]; extrapolated from human PK/PD, protein binding and receptor affinity, confirmed in the field study) was 2 mg/kg SID and the percent bound ([2]; 200 ng/mL) was 95%. The percent bound ([2]; 1000 ng/mL) was 92%, the sedation scores ([3]; 20 mg tablet Formulation A34 about 30 minutes before onychectomy) was “without an apparent effect on sedation scores” and the analgesia scores ([3]; oral tablet about 30 minutes before onychectomy (grapiprant: 20 mg tablet Formulation A34, Day 0 only; Onsior: 6 mg, Days 0-2)) was “decreased analgesia scores (reduced pain)”. For the same compound, the AUC(0-t) ([4]; both sexes, serum, 2.5 mg/animal, single dose 2.5 mg (0.5 mg/kg), mean of all animals) was 4190 ng·h/mL, the Cmax ([4]; both sexes, serum, 2.5 mg/animal, single dose 2.5 mg (0.5 mg/kg), mean of all animals, read-out: Cmax) was 1060 ng/mL and the Tmax ([4]; both sexes, serum, 5 mg/animal, single dose 5 mg (1 mg/kg), mean of all animals, read-out: Tmax) was 1.13 h. It also gave an AUC(0-t) ([4]; both sexes, serum, 10 mg/animal, single dose 10 mg (2 mg/kg), mean of all animals) of 21200 ng·h/mL, a Cmax ([4]; both sexes, serum, 10 mg/animal, single dose 10 mg (2 mg/kg), mean of all animals, read-out: Cmax) of 4430 ng/mL and a Tmax ([4]; both sexes, serum, 0.5 to 2 mg/kg, read-out: Mean Tmax values among groups) of 1.13 to 1.5 h. It also gave a half-life ([4]; both sexes, serum, single dose 2.5 mg (0.5 mg/kg), mean of all animals) of 1.58 h, a half-life ([4]; both sexes, serum, single dose 5 mg (1 mg/kg), mean of all animals) of 1.13 h and a half-life ([4]; both sexes, serum, single dose 10 mg (2 mg/kg), mean of all animals) of 3.44 h. The Cmax/Dose ([4]; single dose 2.5 mg (0.5 mg/kg), mean of all animals) was 2120 kg·ng/mL/mg, the Cmax [4, 5] was 2690 ng/mL and the Cmax/Dose [4, 5] was 2500 kg·ng/mL/mg. For the same compound, the Cmax/Dose ([4]; single dose 10 mg (2 mg/kg), mean of all animals) was 2150 kg·ng/mL/mg, the “increase in AUClast” value [4, 6] was 5.06 fold and the “increase in Cmax” value [4, 6] was 4.18 fold.

Source: patent publication US12109218B2, “Compositions of grapiprant and methods for using the same” (ARATANA THERAPEUTICS, INC., priority 2014, dated 2024)
